Results taken from US12612386B2, “Heteroaryl-triazole compounds as pesticides” (Bayer Aktiengesellschaft, priority 2020, dated 2026).

What was measured:
Assay type in all cases: in vivo
[1] = system: larvae of the banded cucumber beetle (Diabrotica balteata); test: Diabrotica balteata spray test; settings: 168 h, 100 g/ha (=32 μg/well), after 7 days, read-out: efficacy (seedling growth)
Summary of the method: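 Efficacy is seedling survival after 7 days, where 0% means no seedlings grew and 100% means growth equal to untreated, uninfested controls. Wheat seedlings, germinated on agar for 1 day, were sprayed with the aqueous emulsifier dilution (acetone/DMF solvent) and then exposed to 10–20 banded cucumber beetle larvae.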

[2] = system: adult cat fleas (Ctenocephalides felis); test: Ctenocephalides felis in-vitro contact test, adult cat flea; settings: 5 μg/cm^2 (=500 g/ha), after 48 hours
Procedure: Ctenocephalides felis—In-Vitro Contact Tests Adult Cat Flea
(§1) 9 mg compound is solved in 1 mL acetone and diluted with acetone to the desired concentration. 250 μL of the test solution is filled in 25 mL glass test tubes and homogeneously distributed on the inner walls by rotation and tilting on a shaking device (2 h at 30 rpm). With a compound concentration of 900 ppm, an inner surface of 44.7 cm^2 and a homogeneous distribution, a dose of 5 μg/cm^2 is achieved.
(§2) After the solvent has evaporated, each test tube is filled with 5-10 adult cat fleas (Ctenocephalides felis), closed with a perforated lid and incubated in a lying position at room temperature and relative humidity. After 48 hours efficacy is determined. The fleas are patted on the ground of the tubes and are incubated on a heating plate at 45-50° C. for at most 5 minutes. Immotile or uncoordinated moving fleas, which are not able to escape the heat by climbing upwards, are marked as dead or moribund.
An efficacy of 100% means all fleas are dead or moribund; 0% means no fleas are dead or moribund.

[3] = system: cattle tick larvae (Rhipicephalus microplus), strain Parkhurst, resistant against synthetic pyrethroids; test: Rhipicephalus (Boophilus) microplus in-vitro contact test, larval cattle tick; settings: 5 μg/cm^2 (=500 g/ha), after 48 hours
Procedure: Rhipicephalus (Boophilus) Microplus—In-Vitro Contact Tests Larval Cattle Tick (Strain Parkhurst, Resistant Against Synthetic Pyrethroids)
as §1
After the solvent has evaporated, each test tube is filled with 20-50 cattle tick larvae (Rhipicephalus microplus), closed with a perforated lid and incubated in a horizontal position at 85% relative humidity and 27° C. in an incubator. After 48 hours efficacy is determined. The larvae are patted on the ground of the tubes and negative geotactic behavior is recorded.
An efficacy of 100% means all larvae are dead or moribund; 0% means no larvae are dead or moribund.

[4] = system: green peach aphid (Myzus persicae); test: Myzus persicae spray test (MYZUPE); settings: 120 h, 100 g/ha, after 5 days
Summary of the method: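 Percent aphid kill, with 0% meaning none killed, was read 5 days after spraying. The preparation (acetone–DMF solvent, water with 1000 ppm emulsifier) was applied to Brassica pekinensis leaf disks carrying mixed-instar green peach aphids.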

[5] = system: fall armyworm larvae (Spodoptera frugiperda); test: whole plant or invertebrate; settings: 168 h
Summary of the method: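 Percent kill of Spodoptera frugiperda caterpillars, read 7 days after infestation of dried, spray-treated Zea mays leaf pieces. Spray preparation: compound in acetone plus dimethylformamide, diluted with emulsifier-containing water.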

[6] = system: larvae of the southern green stink bug (Nezara viridula); test: whole plant or invertebrate; settings: 96 h
Summary of the method: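 Percent mortality of southern green stink bug larvae was recorded at day 4, with 100% meaning all dead. The larvae were placed on barley sprayed with the test solution. That solution was prepared from acetone/dimethylformamide concentrate diluted in emulsifier-containing water (1000 ppm).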

[7] = system: adult brown dog ticks (Rhipicephalus sanguineus); test: Rhipicephalus sanguineus in-vitro contact test, adult brown dog ticks; settings: 48 h, read-out: efficacy (ticks dead or moribund)
Procedure: Rhipicephalus sanguineus—In-Vitro Contact Tests with Adult Brown Dog Ticks
as §1
as §2, with “brown dog ticks (Rhipicephalus sanguineus),” for “cat fleas (Ctenocephalides felis),”, “ticks” for “fleas”, “ticks,” for “fleas,”
An efficacy of 100% means all ticks are dead or moribund; 0% means no ticks are dead or moribund.

[8] = system: adult mosquitoes Aedes aegypti strain MONHEIM; test: Aedes aegypti test (AEDSAE surface treatment & contact assay); settings: 24 hours after contact, read-out: efficacy (mortality); for mortality at 20 mg/m2: surface concentration 20 mg/m^2, 30 min exposure; for mortality at 4 mg/m2: surface concentration 4 mg/m^2, 30 min exposure
Procedure: Aedes aegypti Test (AEDSAE Surface Treatment & Contact Assay)
Solvent: Aceton+2000 ppm rapeseed oil methyl ester (RME)
This solution is pipetted onto a glazed tile and after evaporation of the acetone, adult mosquitoes of the species Aedes aegypti strain MONHEIM are placed onto the dried surface. The exposure time is 30 minutes. Mortality in percent (%) is determined 24 hours after contact of the insects to the treated surface. 100% mortality means that all tested insects are dead, whereas 0% means that no insect died.

[9] = system: brown planthopper (Nilaparvata lugens); test: Nilaparvata lugens spray test; settings: 96 h
Procedure: Nilaparvata lugens—Spray Test
• Solvent: 78.0 parts by weight of acetone • 1.5 parts by weight of dimethylformamide • Emulsifier: alkylarylpolyglycol ether
To produce a suitable preparation of active compound, 1 part by weight of active compound is mixed with the stated amount of solvents and is diluted with water, containing an emulsifier concentration of 1000 ppm, to the desired concentration. Further test concentrations are prepared by dilution with emulsifier containing water.
Rice plants (Oryza sativa) are sprayed with a preparation of the active ingredient of the desired concentration and the plants are infested with the brown planthopper (Nilaparvata lugens).
After 4 days mortality in % is determined. 100% means all planthoppers have been killed and 0% means none of the planthoppers have been killed.

Row | Structure (SMILES) | pest or weed control at 32 µg/disc, 100 g/ha [1] | efficacy (fleas dead or moribund) [2] | efficacy (larvae dead or moribund) [3] | mortality at 100 g/ha [4] | mortality at 100 g/ha [5] | mortality at 500 g/ha [6] | pest or weed control at 5 µg/cm2, 500 g/ha [7] | mortality at 20 mg/m2 [8] | mortality at 500 g/ha [9] | mortality at 100 g/ha [6] | mortality at 4 mg/m2 [8]
1 | C[C@H](NC(=O)c1cc(OC(F)F)cc(C2CC2)c1)c1ncnn1-c1cc(C(N)=O)ncn1 [I-66] | 100% | 90% | 100% | 90% | 100% | 100% |  |  |  |  | 
2 | Cc1nc([C@H](C)NC(=O)c2cc(Br)cc(OC(F)(F)F)c2)n(-c2cc(C#N)ncn2)n1 [I-28] | 100% |  | 100% |  | 100% | 90% | 100% |  |  |  | 
3 | C[C@H](NC(=O)c1cc(Cl)cc(OC(F)(F)F)c1)c1ncnn1-c1cc(C#N)ncn1 [I-18] | 100% | 90% | 100% | 90% | 100% | 100% | 100% |  |  |  | 
4 | CNC(=O)c1cc(-n2nc(C)nc2[C@H](C)NC(=O)c2cc(Br)cc(OC(F)(F)F)c2)ncn1 [I-65] | 100% | 100% | 100% | 90% | 100% | 100% | 100% |  |  |  | 
5 | C[C@H](NC(=O)c1cc(Cl)cc(S(=O)(=O)C(F)(F)F)c1)c1ncnn1-c1cc(C#N)ncn1 [I-7] | 100% |  |  | 100% | 100% | 100% |  | 80 to 100% | 90% | 90% | 
6 | Cc1nc([C@H](C)NC(=O)c2cc(Cl)cc(C(F)(F)F)c2)n(-c2cc(C#N)ncn2)n1 [I-41] | 100% |  |  | 100% | 100% | 90% |  |  |  |  | 80 to 100%
7 | CC(C)N(C)C(=O)c1cc(-n2ncnc2[C@H](C)NC(=O)c2cc(Br)cc(OC(F)(F)F)c2)ncn1 [I-55] | 100% | 100% | 100% | 100% | 100% |  | 100% |  |  |  | 
8 | C[C@H](NC(=O)c1cc(C(F)(F)F)cc(S(C)(=O)=O)c1)c1ncnn1-c1cc(C#N)ncn1 [I-2] | 80% |  | 100% |  |  |  |  | 80 to 100% |  |  | 80 to 100%
9 | CNC(=O)c1cc(-n2nc(C)nc2[C@H](C)NC(=O)c2cc(Br)cc(Br)c2)ncn1 [I-52] | 100% | 100% | 100% |  | 100% |  | 100% |  |  |  | 
10 | CC(C)N(C)C(=O)c1cc(-n2ncnc2[C@H](C)NC(=O)c2cc(Cl)cc(OC(F)(F)F)c2)ncn1 [I-56] | 100% | 100% | 100% | 90% | 100% |  | 100% |  |  |  | 
11 | C[C@H](NC(=O)c1cc(OC(F)(F)F)cc(S(C)(=O)=O)c1)c1ncnn1-c1cc(C#N)ncn1 [I-19] | 100% |  |  | 100% | 100% | 100% |  | 80 to 100% |  | 90% | 80 to 100%
